This is an account of results in US10968232B2 (Merck Sharp & Dohme Corp., priority 2016, dated 2021).

The target in the assay is T1, human GPR40 (Homo sapiens, UniProt O14842).
T1 construct: expressed in transfected cells
Nature of the assay: Inositol Phosphate Turnover (IP1) Assay. It counts as cell-based. Conditions: HEK cells stably expressing human GPR40; CisBio IP-One kit; 60 minutes at 37 degrees; read-out: Human IP1 EC50. A digest of the protocol: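 HEK cells stably expressing GPR40, plated 16 h, then exposed to compound in stimulation buffer for 60 min at 37 °C. IP1 accumulation read by HTRF IP-One detection after 60 min at RT.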

T1 sequence (O14842 whole entry): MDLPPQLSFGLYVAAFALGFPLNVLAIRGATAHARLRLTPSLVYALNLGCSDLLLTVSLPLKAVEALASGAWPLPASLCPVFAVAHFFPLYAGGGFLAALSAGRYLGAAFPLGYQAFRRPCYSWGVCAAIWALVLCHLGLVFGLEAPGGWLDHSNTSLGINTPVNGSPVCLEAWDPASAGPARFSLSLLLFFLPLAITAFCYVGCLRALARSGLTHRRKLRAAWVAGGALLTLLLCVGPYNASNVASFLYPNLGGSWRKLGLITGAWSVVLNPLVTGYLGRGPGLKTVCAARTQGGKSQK

Regarding `C[C@H](C(=O)O)[C@H](c1ccc2c(c1)OC1(CC2)CC(N[C@H](C)c2cc(C(F)(F)F)ccc2C(F)(F)F)C1)C1CC1` (stereo partly drawn) [Example 93, (2S,3R)-3-(3′-(((R)-1-(2,5-bis(trifluoro-methyl)phenyl)ethyl)a-mino)spiro[chroman-2,1′-cyclo-butan]-7-yl)-3-cyclopropyl-2-methylpropanic acid], the EC50 is 5.71 nM. In the case of `CC(c1cc(C(F)(F)F)ccc1C(F)(F)F)N(C)C1CC2(CCc3ccc([C@H](C4CC4)[C@H](C)C(=O)O)cc3O2)C1` (stereo partly drawn) [Example 99, (2S,3R)-3-(3′-((1-(2,5-bis(trifluoromethyl)phenyl)ethyl)(methyl)amino)spiro[chroman-2,1′-cyclobutan]-7-yl)-3-cyclopropyl-2-methylpropanoic Acid], the EC50 was found to be 1.62 nM. As to `C[C@H](C(=O)O)[C@H](c1ccc2c(c1)OC1(CC2)CC(N(C)[C@@H](C)c2cc(C(F)(F)F)ccc2C(F)(F)F)C1)C1CC1` (stereo partly drawn) [Example 100, (2S,3R)-3-(3′-(((S)-1-(2,5-bis(trifluoro-methyl)phenyl)ethyl)(meth-yl)amino)spiro[chro-man-2,1′-cyclobutan]-7-yl)-3-cyclopropyl-2-methylpropanic acid], the half-maximal effective concentration (EC50) was determined as 4.19 nM. The figure for `C[C@H](C(=O)O)[C@H](c1ccc2c(c1)OC1(CC2)CC(N(C)[C@H](C)c2cc(C(F)(F)F)ccc2C(F)(F)F)C1)C1CC1` (stereo partly shown) [Example 101] is 17 nM. The figure for `CCC(c1cc(C(F)(F)F)cc(Cl)c1F)N1CCC2(CCc3ccc([C@H](C4CC4)[C@H](C)C(=O)O)cc3O2)CC1` (stereo partly drawn) [Example 109, (2S,3R)-3-(1′-(1-(3-chloro-2-fluoro-5-(tri-fluromethyl)phenyl)propyl)spiro[chroman-2,4′-piperidin]-7-yl)-3-cyclopropyl-2-methylpropanoic acid] is 2.51 nM; for `CCC(c1cc(Cl)ccc1OC(F)(F)F)N1CCC2(CCc3ccc([C@H](C4CC4)[C@H](C)C(=O)O)cc3O2)CC1` (stereo partly drawn) [Example 110, (2S,3R)-3-(1′-(1-(5-chloro-2-(trifluoromethoxy)phenyl)propyl)spiro[chroman-2,4′-piperidin]-7-yl)-3-cyclopropyl-2-methylpropanoic Acid] it is 0.812 nM; for `CC(c1cc(C2CC2)ccc1OC(F)(F)F)N1CCC2(CCc3ccc([C@H](C4CC4)[C@H](C)C(=O)O)cc3O2)CC1` (stereo partly drawn) [Example 111, (2S,3R)-3-cyclopropyl-3-(1′-(1-(5-cyclopropyl-2-(trifluoromethoxy)phenyl)ethyl)spiro[chroman-2,4′-piperidin]-7-yl)-2-methylpropanoic Acid] it is 20.2 nM.

For the compound `Cc1cscc1-c1ccc(OC(F)(F)F)c(C(C)N2CCC3(CCc4ccc([C@H](C5CC5)[C@H](C)C(=O)O)cc4O3)CC2)c1` (stereo partly shown) [Example 119], the EC50 stood at 15 nM.

`Cc1noc(C)c1-c1ccc(OC(F)(F)F)c(C(C)N2CCC3(CCc4ccc([C@H](C5CC5)[C@H](C)C(=O)O)cc4O3)CC2)c1` (stereo partly drawn) [Example 121, (2S,3R)-3-cyclopropyl-3-(1′-(1-(5-(3,5-dimethylisoxazol-4-yl)-2-(trifluoro-methoxy)phenyl)ethyl)spiro [chroman-2,4′-piperidin]-7-yl)-2-methyl-propanoic acid]: the EC50 came out at 110 nM. Under `CC(c1cc(C#N)ccc1OC(F)(F)F)N1CCC2(CCc3ccc([C@H](C4CC4)[C@H](C)C(=O)O)cc3O2)CC1` (stereo partly drawn) [Example 123, (2S,3R)-3-(1′-(1-(5-cyano-2-(trifluoromethoxy)phenyl)ethyl)spiro[chroman-2,4′-piperidin]-7-yl)-3-cyclopropyl-2-methylpropanoic Acid] stands 30.4 nM; under `C[C@H](C(=O)O)[C@H](c1ccc2c(c1)OC1(CC2)CCN(Cc2cc(C#N)ccc2OC(F)(F)F)CC1)C1CC1` [Example 124, (2S,3R)-3-(1′-(5-cyano-2-(trifluoro-methoxy)-benzyl)spiro[chroman-2,4′-piperidin]-7-yl)-3-cyclopropyl-2-methylpropanoic acid], 64.1 nM; under `C[C@H](C(=O)O)[C@H](c1ccc2c(c1)OC1(CC2)CC2(CN([C@H](C)c3cc(C(F)(F)F)ccc3C(F)(F)F)C2)C1)C1CC1` [Example 126, (2S,3R)-3-cyclopropyl-3-(2,2-(R)-2-(1-(2,5-bis(trifluoromethyl)phenyl)ethyl)-2-azaspiro[3.3]heptane-chroman-7-yl)-2-methylpropanoic Acid], 8.52 nM.

As for `C[C@H](C(=O)O)[C@H](c1ccc2c(c1)OC1(CC2)CC2(CN([C@@H](C)c3cc(C(F)(F)F)ccc3C(F)(F)F)C2)C1)C1CC1` [Example 127, (2S,3R)-3-cyclopropyl-3-(2,2-(S)-2-(1-(2,5-bis(trifluoromethyl)phen-yl)ethyl)-2-azaspiro[3.3]-heptane-chroman-7-yl)-2-methylpropanoic acid], the EC50 came to 0.46 nM. The figure for `C[C@H](C(=O)O)[C@H](c1ccc2c(c1)OC1(CC2)CCN(Cc2cc(C(F)(F)F)ccc2C(F)(F)F)CC1)C1CC1` [Example 129, Sodium (2S,3R)-3-(1′-(2,5-bis(trifluoromethyl)benzyl)spiro[chromane-2,4′-piperidin]-7-yl)-3-cyclopropyl-2-methylpropanoate] is 3.8 nM; for `C[C@H](C(=O)O)[C@H](c1ccc2c(c1)OC1(CC2)CCN([C@H](C)c2cc(C(F)(F)F)ccc2C(F)(F)F)CC1)C1CC1` [Example 130, Sodium (2S,3R)-3-(1′-((R)-1-(2,5-Bis(trifluoromethyl)phenyl)ethyl)spiro[chromane-2,4′-piperidin]-7-yl)-3-cyclopropyl-2-methylpropanoate] it is 3.1 nM. Turning to `C[C@H](C(=O)O)[C@H](c1ccc2c(c1)OC1(CC2)CCN([C@@H](C)c2cc(C(F)(F)F)ccc2C(F)(F)F)CC1)C1CC1` [Example 131, Sodium (2S,3R)-3-(1′-((S)-1-(2,5-bis(trifluoromethyl)phenyl)ethyl)spiro[chromane-2,4′-piperidin]-7-yl)-3-cyclopropyl-2-methylpropanoate], the half-maximal effective concentration (EC50) was more than 1000 nM. For the compound `C[C@H](C(=O)O)[C@H](c1ccc2c(c1)OC1(CC2)CCN([C@@H](C)c2cc(F)ccc2OC(F)(F)F)CC1)C1CC1` [Example 132, Sodium (2S,3R)-3-cyclopropyl-3-(1′-((S)-1-(5-fluoro-2-(trifluoromethoxy)phenyl)ethyl)spiro[chromane-2,4′-piperidin]-7-yl)-2-methylpropanoate], the EC50 was found to be 11.2 nM. Under `CC(c1cc(Cl)ccc1OC(F)(F)F)N1CCC2(CCc3ccc([C@H](C4CC4)[C@H](C)C(=O)O)cc3O2)CC1` (stereo partly drawn) [Example 133, Sodium (2S,3R)-3-(1′-(1-(5-chloro-2-(trifluoromethoxy)phenyl)ethyl)spiro[chromane-2,4′-piperidin]-7-yl)-3-cyclopropyl-2-methylpropanoate] stands 3.3 nM. The figure for `CC(c1cc(Cl)ccc1OC(F)(F)F)N1CCC2(CCc3ccc([C@H](C4CC4)[C@H](C)C(=O)O)cc3O2)CC1` (stereo partly drawn) [Example 134, Sodium (2S,3R)-3-(1′-(1-(5-chloro-2-(trifluoromethoxy)phenyl)ethyl)spiro[chromane-2,4′-piperidin]-7-yl)-3-cyclopropyl-2-methylpropanoate] is 1.4 nM.

What is called EC50 is the concentration that produces a half-maximal response.
